Like-named read-outs stand apart in the source and are kept apart here.

Data on three molecules can be found in PMC12428754, “Testing Strategies for Metabolite-Mediated Neurotoxicity” (International Journal of Molecular Sciences, 2025).

Assay [1] has as its system hiPSC-derived immature human dorsal root ganglia neuron-like cells. In words: PeriTox (UKN5a) neurite outgrowth assay. As to conditions: for parent/metabolite potency ratio (BMC25): listed under the metabolite. The class given is cell-based. How it is done: PeriTox assay was performed as previously described. In brief, cryopreserved hiPSC-derived immature human dorsal root ganglia neuron-like cells were thawed and plated at a density of 100,000 cells/cm^2 into matrigel-coated 96-well plates. The cells were cultured in 75 µL PeriTox differentiation medium (PDM) consisting of 25% KSR-S and 75% N2-S media supplemented with 1.5 µM CHIR99021, 1.5 µM SU5402, and 5 µM DAPT (KSR-S: knockout DMEM with 15% serum replacement, 1x Glutamax, 1x nonessential amino acids, and […] beta-mercaptoethanol; N2-S: DMEM/F12, with 2 mM Glutamax, 0.1 mg/mL apotransferrin, 1.55 mg/mL glucose, 25 µg/mL insulin, […] putrescine, 30 nM selenium, and 20 nM progesterone). After one hour, 25 µL PDM with 4x concentrated serial dilutions of the test compounds was added to the cells.
The image acquisition and analysis were conducted according to established protocols. The cells were stained with Hoechst H-33342 (1 µg/mL) to visualise nuclei and calcein-AM (1 µM) to label viable cell structures. Fluorescent images were acquired using an automated imaging system. An image analysis algorithm detected nuclei to define somatic regions, which were then excluded from the total calcein-positive area. The remaining signal was quantified as the neurite area.
In the first step, matched technical replicates were averaged. […] For visualisation, GraphPad Prism 9 was used. […]
Supplementary Figure S1: Comparison of data from the MitoMet test and the PeriTox test. A) Exposure scheme for the PeriTox test (UKN5a):
For testing, cryopreserved hiPSC-derived immature human dorsal root ganglia neuron-like cells were thawed and plated into 96-well plates. Cells were treated with toxicants at one h after plating. Neurite outgrowth and viability were determined at 24 h later, using automated high content imaging. B) Benchmark concentrations (BMC25) were calculated as a measure for “onset of toxicity” for the MitoMet (UKN4b; as described in Figure 1) and UKN5a assay. If no BMC could be determined, the highest tested concentration was used as surrogate endpoint. The arrows indicate the sensitivity shifts of parent vs metabolite in the respective assay. […]

Assay [2] concerns LUHMES cells. In words: MitoMet (UKN4b) neurite outgrowth assay. The assay is classed as cell-based, human. As to conditions: for IC25: benchmark response 25%, neurite area, 24 h exposure, three independent experiments, read-out: BMC25 neurite outgrowth. How it is done:
Figure 1 (A) A strategy scheme to assess metabolite-mediated hazard in NAMs used for neurotoxicity or developmental neurotoxicity. Parent and metabolite compounds are tested separately in the respective assay. This strategy is applicable when there is prior knowledge of metabolite formation. A decision rule based on the relative toxicities (X) of the parent and metabolite may be applied to decide whether next-generation risk assessment (NGRA) should be applied to the metabolite. The value of X may be defined according to the problem formulation and the NAM used. (B) An assay scheme of the neurite outgrowth assay used here for exemplification: Proliferating LUHMES cells were replated one day before differentiation was initiated (day −1). After two days (day 2) in differentiation medium, the cells were replated into assay format (96-well). At this point, neurite growth was re-initiated. The cells were treated with toxicants 1 h after replating. Neurite outgrowth and viability were determined 24 h later, using automated high content imaging. (C) Comparison of neurite outgrowth of cultures treated with bromethalin and desmethyl-bromethalin one exemplary parent/metabolite pair (chemical structures shown). […] The curves are based on data from three independent experiments and were fitted using a four-parameter Hill function. Data points shown are arithmetic means of data from independent experiments ±SEM. In each independent experiment, the technical replicates were measured and averaged. A benchmark response (BMR) of 25% was used as specified in the detailed assay description, and the respective benchmark concentration (BMC25) was determined. […] (D) Microscopic images of calcein-stained LUHMES cells. Similar images are used for neurite quantification. Treatment with 40 nM of the parent (left) or metabolite (right). The scale bar in orange corresponds to 50 µm. […] It stands under panel C and to the right of panel D, and was assigned to C.
The MitoMet neurite outgrowth assay was performed as previously described. In brief, all cell culture dishes and flasks were pre-coated with 50 μg/mL poly-l-ornithine (PLO) and 1 μg/mL fibronectin. Proliferating LUHMES cells were maintained in AdvDMEM/F12 containing L-glutamine (2 mM), N2 supplement (1x), and FGF (40 ng/mL). For pre-differentiation, the cells were replated at a density of 46,000 cells/cm^2 one day prior to the induction of differentiation (defined as the day of differentiation, Day −1). Differentiation was initiated by exchanging the culture medium for AdvDMEM/F12 supplemented with L-glutamine (2 mM), N2 supplement (1x), dibutyryl-cAMP (1 mM), tetracycline (1 µg/mL), and GDNF (2 ng/mL). After two days of differentiation (Day 2), the cells were replated (100,000 cells/cm^2) into 96-well plates. The final assay medium consisted of glucose-free AdvDMEM/F12 supplemented with galactose (18 mM), L-glutamine (2 mM), and tetracycline (1 µg/mL). One hour after replating, the cells were treated with a 10× concentrated stock solution of the test compound. Neurite outgrowth and viability were determined 24 h later, using automated high content imaging.
The image acquisition and analysis were conducted according to established protocols. The cells were stained with Hoechst H-33342 (1 µg/mL) to visualise nuclei and calcein-AM (1 µM) to label viable cell structures. Fluorescent images were acquired using an automated imaging system.

In assay [3] the test system is hiPSC-derived neural crest-like cells. In words: cMINC (UKN2) neural crest cell migration assay. The class given is cell-based, human. As to conditions: listed under the metabolite. As for the experimental part:
Figure 6 The transfer of the metabolisation module to the neural crest cell migration assay (cMINC). (A) A schematic of the cMINC (circular migration of neural crest cells) assay. The cells were seeded around a central stopper to create a cell-free circular area. Migration was initiated 24 h after seeding by removing the stopper. This is defined as the day of migration (DoM) 0. On DoM 1, the cells were exposed to toxicants. After 24 h of exposure, both cell migration and viability were quantified, using automated high-content imaging. (B) Compatibility of the metabolisation module (preincubation with 500 µg/mL S9 at 37 °C for 2 h) with the cMINC assay: The setup was as described in Figure 4 and as exemplified in Figure 5A. No compound was added (solvent control). The S9 mixture (at 500 µg/mL ± NADPH) was added to the normal cell culture medium of the cMINC assay (so that the addition was 10% of the total volume). Data are from three independent experiments. (C,D) The concentration-dependent effects on migration were evaluated for metabolite mixtures generated from bromethalin (C) or chlorfenapyr (D). […] The arrows indicate the direction of sensitivity shift between NADPH-dependent and -independent metabolite mixtures, with accompanying fold change values. The concentrations are given as nominal concentrations of the parent compound. Abbreviations: n.s., not significant. TEXT PRINTED IN THE PICTURE: (C) Bromethalin: x30 | (D) Chlorfenapyr: x15
The MINC assay was performed as previously described. Briefly, 96-well plates were prepared by inserting a central 2 mm diameter stopper (Platypus Technologies, Madison, WI, USA) into pre-coated wells with a composite poly-L-ornithine (PLO; 10 µg/mL), fibronectin (1 µg/mL), and laminin (1 µg/mL) matrix. […] After a further 24 h (DoM 2), cell migration and viability were assessed. […] High content imaging was performed, and data were analysed using the RingAssay V1 software (http://invitrotox.uni-konstanz.de/, accessed on 3 February 2025). […]

`O=C(c1ccccc1)c1ccccc1` [Benzophenone]: in assay [1] (result in words), the “effect on peripheral neurite outgrowth” value is “neither benzophenone nor its hydroxy metabolite showed any significant effect”. In assay [2] (Homo sapiens), the IC25 was greater than 500 µM.

Take `COC(=O)Nc1nc2ccccc2[nH]1` [Carbendazim]: in assay [1], the “parent/metabolite potency ratio (BMC25)” value turned out to be 0.2. Moreover, the IC25 in assay [2] (Homo sapiens) stood at 4.8 µM.

As to `O=[N+]([O-])c1cc([N+](=O)[O-])c(Nc2c(Br)cc(Br)cc2Br)c(C(F)(F)F)c1` [Desmethyl-bromethalin], the “parent/metabolite potency ratio (BMC25)” value in assay [1] is listed as 3. Moreover, the “neurite area, metabolite compared to parent at equimolar concentrations” value in assay [2] (40 nM, calcein-stained LUHMES cells) is reported as “clear reduction in the neurite area”. Also, the IC25 in assay [2] stood at 0.014 µM. In assay [2] (listed under the metabolite, >1 = metabolite more potent), the “fold change between BMC25 values of parent and metabolite (potency ratio, parent divided by metabolite)” value is on record as 57 fold. In addition, the “increase in potency of metabolite compared to parent (BMC25 ratio)” value in assay [3] turned out to be 44 fold.
